# From article doi:10.1101/2020.06.11.145995v1 (biorxiv, 2020)
# Read-outs that look alike come from different tables or passages of the source.
# How the values were obtained:
# Assay in all cases: biochemical
# TAOK3 = TAOK3 (Homo sapiens, UniProt Q9H2K8)
# NDR1 = NDR1 (Homo sapiens, UniProt Q15208)
# PRKD1 = PRKD1 (Homo sapiens, UniProt Q15139)
# PIK3CA(E545K) = PIK3CA(E545K) (Homo sapiens, UniProt P42336, E545K)
# ZAK = ZAK (Homo sapiens, UniProt Q9NYL2)
# PRKG2 = PRKG2 (Homo sapiens, UniProt Q13237)
# PIK3CA(H1047L) = PIK3CA(H1047L) (Homo sapiens, UniProt P42336, H1047L)
# Sequence of PIK3CA(H1047L) (P42336 whole entry H1047L): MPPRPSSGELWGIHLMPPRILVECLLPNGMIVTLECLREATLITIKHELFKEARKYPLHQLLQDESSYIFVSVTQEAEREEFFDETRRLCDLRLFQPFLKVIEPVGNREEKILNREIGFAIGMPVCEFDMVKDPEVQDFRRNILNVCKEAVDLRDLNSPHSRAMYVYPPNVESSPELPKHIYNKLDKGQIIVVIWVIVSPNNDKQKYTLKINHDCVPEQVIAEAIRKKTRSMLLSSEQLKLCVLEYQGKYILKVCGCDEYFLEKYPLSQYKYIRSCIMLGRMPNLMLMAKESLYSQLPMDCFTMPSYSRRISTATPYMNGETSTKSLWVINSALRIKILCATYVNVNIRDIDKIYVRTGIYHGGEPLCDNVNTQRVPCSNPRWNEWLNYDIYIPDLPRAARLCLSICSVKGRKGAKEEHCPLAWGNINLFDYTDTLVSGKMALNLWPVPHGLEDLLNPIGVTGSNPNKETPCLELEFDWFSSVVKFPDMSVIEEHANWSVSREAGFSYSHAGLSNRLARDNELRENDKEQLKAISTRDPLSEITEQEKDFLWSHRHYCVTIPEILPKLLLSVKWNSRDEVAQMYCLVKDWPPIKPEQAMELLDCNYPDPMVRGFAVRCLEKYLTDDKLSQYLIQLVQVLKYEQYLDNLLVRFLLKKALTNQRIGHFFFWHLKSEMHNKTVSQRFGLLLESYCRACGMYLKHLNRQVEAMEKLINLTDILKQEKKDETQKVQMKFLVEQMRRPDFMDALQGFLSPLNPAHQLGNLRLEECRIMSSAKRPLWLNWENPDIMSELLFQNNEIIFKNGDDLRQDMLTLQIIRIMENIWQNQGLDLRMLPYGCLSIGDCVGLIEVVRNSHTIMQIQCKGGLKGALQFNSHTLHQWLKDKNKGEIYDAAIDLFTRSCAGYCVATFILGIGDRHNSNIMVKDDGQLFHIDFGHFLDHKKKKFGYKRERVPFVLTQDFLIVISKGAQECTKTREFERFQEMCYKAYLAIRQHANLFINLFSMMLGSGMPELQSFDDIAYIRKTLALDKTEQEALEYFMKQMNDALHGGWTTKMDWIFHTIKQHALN
# PRKG1 = PRKG1 (Homo sapiens, UniProt Q13976)
# ULK2 = ULK2 (Homo sapiens, UniProt Q8IYT8)
# PAK1 = PAK1 (Homo sapiens, UniProt Q13153)
# RIOK2 = RIOK2 (Homo sapiens, UniProt Q9BVS4)
# NEK2 = NEK2 (Homo sapiens, UniProt P51955)
# NEK6 = NEK6 (Homo sapiens, UniProt Q9HC98)
# RIOK3 = RIOK3 (Homo sapiens, UniProt O14730)
# PAK2 = PAK2 (Homo sapiens, UniProt Q13177)
# PIK3CA = PIK3CA (Homo sapiens, UniProt P42336)
# Sequence of PIK3CA (P42336 whole entry): as the sequence (P42336 whole entry H1047L) above, with L1047H counted along it
# RSK4 = RSK4 (Homo sapiens, UniProt Q9UK32)
# Sequence of RSK4 (Q9UK32 whole entry): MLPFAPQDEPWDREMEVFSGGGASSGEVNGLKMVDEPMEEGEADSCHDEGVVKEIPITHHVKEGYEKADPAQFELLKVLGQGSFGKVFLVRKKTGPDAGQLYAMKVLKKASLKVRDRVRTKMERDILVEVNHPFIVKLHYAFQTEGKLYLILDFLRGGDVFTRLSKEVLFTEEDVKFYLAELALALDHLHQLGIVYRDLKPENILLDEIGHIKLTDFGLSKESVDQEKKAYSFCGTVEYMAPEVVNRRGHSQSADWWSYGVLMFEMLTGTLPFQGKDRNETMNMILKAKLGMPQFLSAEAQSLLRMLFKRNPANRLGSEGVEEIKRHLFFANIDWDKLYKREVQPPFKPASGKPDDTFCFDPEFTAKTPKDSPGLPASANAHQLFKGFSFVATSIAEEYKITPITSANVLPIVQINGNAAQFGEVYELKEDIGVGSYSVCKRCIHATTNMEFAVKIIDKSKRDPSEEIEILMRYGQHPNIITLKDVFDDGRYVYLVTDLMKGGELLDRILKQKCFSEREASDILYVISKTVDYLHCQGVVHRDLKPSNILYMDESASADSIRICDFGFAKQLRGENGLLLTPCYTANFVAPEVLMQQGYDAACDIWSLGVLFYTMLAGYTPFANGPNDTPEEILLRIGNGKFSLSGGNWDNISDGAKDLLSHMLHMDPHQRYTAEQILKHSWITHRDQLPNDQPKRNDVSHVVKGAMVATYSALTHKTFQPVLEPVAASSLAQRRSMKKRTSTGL
# RIPK1 = RIPK1 (Homo sapiens, UniProt Q13546)
# TGFBR2 = TGFBR2 (Homo sapiens, UniProt P37173)
# TNNI3K = TNNI3K (Homo sapiens, UniProt Q59H18)
# PRKCI = PRKCI (Homo sapiens, UniProt P41743)
# p38-beta = p38-beta (Homo sapiens, UniProt Q15759)
# SRPK2 = SRPK2 (Homo sapiens, UniProt P78362)
# YANK3 = YANK3 (Homo sapiens, UniProt Q86UX6)
# NEK11 = NEK11 (Homo sapiens, UniProt Q8NG66)
# S6K1 = S6K1 (Homo sapiens, UniProt P23443)
# Sequence of S6K1 (P23443 whole entry): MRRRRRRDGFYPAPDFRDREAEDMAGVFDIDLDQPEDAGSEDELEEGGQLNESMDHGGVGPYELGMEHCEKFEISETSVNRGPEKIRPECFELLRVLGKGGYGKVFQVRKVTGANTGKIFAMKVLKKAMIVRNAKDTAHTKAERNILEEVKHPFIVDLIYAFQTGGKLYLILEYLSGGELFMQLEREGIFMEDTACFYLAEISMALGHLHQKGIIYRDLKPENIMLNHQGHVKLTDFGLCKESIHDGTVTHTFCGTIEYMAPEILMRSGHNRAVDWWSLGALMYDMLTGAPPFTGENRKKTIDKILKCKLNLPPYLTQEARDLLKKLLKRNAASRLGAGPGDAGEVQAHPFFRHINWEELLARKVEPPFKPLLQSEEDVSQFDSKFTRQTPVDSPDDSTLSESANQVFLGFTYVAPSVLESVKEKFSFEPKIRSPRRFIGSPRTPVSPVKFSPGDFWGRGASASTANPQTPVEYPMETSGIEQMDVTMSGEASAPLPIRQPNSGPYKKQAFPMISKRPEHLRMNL
# SBK1 = SBK1 (Homo sapiens, UniProt Q52WX2)
# Sequence of SBK1 (Q52WX2 whole entry): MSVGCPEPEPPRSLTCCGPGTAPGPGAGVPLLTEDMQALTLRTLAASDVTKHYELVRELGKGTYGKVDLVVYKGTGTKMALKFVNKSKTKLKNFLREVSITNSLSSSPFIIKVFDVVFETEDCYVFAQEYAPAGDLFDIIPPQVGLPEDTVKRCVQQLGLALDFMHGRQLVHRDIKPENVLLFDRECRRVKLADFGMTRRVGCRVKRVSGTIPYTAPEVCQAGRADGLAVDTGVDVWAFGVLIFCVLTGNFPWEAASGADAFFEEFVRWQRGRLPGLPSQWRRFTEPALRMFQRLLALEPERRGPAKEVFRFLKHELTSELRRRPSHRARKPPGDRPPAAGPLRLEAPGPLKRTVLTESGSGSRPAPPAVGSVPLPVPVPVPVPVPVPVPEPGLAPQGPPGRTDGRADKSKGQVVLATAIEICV
# RIOK1 = RIOK1 (Homo sapiens, UniProt Q9BRS2)
# RET(V804M) = RET(V804M) (Homo sapiens, UniProt P07949, V804M)
# Sequence of RET(V804M) (P07949 whole entry V804M): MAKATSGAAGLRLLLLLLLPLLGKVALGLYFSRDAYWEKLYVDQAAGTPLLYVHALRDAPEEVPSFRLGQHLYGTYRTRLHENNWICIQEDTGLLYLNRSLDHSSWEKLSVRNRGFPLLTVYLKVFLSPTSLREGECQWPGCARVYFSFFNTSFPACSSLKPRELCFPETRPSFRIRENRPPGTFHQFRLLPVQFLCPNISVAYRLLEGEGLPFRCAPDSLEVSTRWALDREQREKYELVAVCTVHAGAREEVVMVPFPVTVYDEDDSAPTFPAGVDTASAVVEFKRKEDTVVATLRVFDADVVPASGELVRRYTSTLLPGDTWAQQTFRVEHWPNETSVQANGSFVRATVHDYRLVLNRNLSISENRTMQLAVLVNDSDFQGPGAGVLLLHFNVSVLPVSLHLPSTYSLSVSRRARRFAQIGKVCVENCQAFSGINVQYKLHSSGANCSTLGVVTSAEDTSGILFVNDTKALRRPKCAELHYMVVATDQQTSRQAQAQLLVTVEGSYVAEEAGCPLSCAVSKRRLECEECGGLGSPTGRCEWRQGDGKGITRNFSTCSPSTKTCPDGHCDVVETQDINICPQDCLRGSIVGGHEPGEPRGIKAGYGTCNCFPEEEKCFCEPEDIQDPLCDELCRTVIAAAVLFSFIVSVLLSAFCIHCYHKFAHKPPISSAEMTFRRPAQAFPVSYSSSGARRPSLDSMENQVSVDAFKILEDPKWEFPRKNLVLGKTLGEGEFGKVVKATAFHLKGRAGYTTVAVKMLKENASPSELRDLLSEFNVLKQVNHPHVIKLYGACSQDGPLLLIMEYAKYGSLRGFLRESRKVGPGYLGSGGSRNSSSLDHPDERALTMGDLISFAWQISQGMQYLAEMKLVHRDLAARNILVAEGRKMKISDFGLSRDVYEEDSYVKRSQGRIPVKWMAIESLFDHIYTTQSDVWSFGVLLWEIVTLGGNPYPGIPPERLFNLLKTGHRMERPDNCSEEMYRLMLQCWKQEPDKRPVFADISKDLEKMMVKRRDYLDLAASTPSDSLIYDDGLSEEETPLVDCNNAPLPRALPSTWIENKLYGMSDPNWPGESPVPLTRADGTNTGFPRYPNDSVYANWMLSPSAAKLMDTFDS
# [1] = read-out: CPT-1-70-1 (1μM) % control
# [2] = read-out: HYJ-2-002-1 (1μM) % control
# Sequence of PRKD1 (Q15139 whole entry): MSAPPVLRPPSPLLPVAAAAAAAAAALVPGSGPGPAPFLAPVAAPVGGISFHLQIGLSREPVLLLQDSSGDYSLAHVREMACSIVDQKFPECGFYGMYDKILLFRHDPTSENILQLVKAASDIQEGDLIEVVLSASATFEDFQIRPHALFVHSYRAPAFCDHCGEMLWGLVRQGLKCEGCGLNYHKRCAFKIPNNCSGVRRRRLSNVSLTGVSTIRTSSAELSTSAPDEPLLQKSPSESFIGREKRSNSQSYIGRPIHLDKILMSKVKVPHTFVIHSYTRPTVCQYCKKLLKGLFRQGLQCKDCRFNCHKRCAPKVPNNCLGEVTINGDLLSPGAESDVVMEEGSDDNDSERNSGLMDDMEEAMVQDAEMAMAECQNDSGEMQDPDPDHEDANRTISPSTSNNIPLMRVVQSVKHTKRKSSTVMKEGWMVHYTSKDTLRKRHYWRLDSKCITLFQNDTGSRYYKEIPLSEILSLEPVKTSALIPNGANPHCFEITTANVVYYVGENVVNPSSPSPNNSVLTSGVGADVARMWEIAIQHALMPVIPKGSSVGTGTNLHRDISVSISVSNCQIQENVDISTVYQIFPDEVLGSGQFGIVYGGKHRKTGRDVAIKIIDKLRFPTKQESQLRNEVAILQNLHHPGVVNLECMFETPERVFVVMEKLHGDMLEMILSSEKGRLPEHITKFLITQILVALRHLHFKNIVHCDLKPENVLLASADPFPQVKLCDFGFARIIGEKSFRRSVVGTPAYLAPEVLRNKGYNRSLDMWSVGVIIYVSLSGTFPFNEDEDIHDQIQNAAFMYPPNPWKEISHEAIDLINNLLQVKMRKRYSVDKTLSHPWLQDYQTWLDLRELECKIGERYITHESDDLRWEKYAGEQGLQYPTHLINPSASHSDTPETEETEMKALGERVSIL
# Sequence of PIK3CA(E545K) (P42336 whole entry E545K): as the sequence (P42336 whole entry H1047L) above, with E545K, L1047H counted along it
smiles,measurement,setting,value
CN1CCN(c2ccc(Nc3nc(Oc4ccc(NC(=O)CCl)cc4)c4cc[nH]c4n3)cc2)CC1 [CPT1-70-1],remaining activity at 1 µM,TAOK3; [1],71%
same,remaining activity at 1 µM,NDR1; [1],37%
same,remaining activity at 1 µM,PRKD1; [1],52%
same,remaining activity at 1 µM,PIK3CA(E545K); [1],84%
same,remaining activity at 1 µM,ZAK; [1],71%
same,remaining activity at 1 µM,PRKG2; [1],100%
same,remaining activity at 1 µM,PIK3CA(H1047L); [1],100%
same,remaining activity at 1 µM,PRKG1; [1],100%
same,remaining activity at 1 µM,ULK2; [1],29%
same,remaining activity at 1 µM,PAK1; [1],64%
same,remaining activity at 1 µM,RIOK2; [1],5.2%
same,remaining activity at 1 µM,NEK2; [1],100%
same,remaining activity at 1 µM,NEK6; [1],100%
same,remaining activity at 1 µM,RIOK3; [1],53%
same,remaining activity at 1 µM,PAK2; [1],64%
same,remaining activity at 1 µM,PIK3CA; [1],100%
same,remaining activity at 1 µM,"RSK4; read-out: CPT-1-70-1 (1μM) % control, Kin.Dom.1-N-terminal",45%
same,remaining activity at 1 µM,"RSK4; read-out: CPT-1-70-1 (1μM) % control, Kin.Dom.2-C-terminal",100%
same,remaining activity at 1 µM,RIPK1; [1],0.15%
same,remaining activity at 1 µM,TGFBR2; [1],100%
same,remaining activity at 1 µM,TNNI3K; [1],100%
same,remaining activity at 1 µM,PRKCI; [1],65%
same,remaining activity at 1 µM,p38-beta; [1],100%
same,remaining activity at 1 µM,SRPK2; [1],98%
same,remaining activity at 1 µM,YANK3; [1],100%
same,remaining activity at 1 µM,NEK11; [1],95%
same,remaining activity at 1 µM,S6K1; [1],100%
same,remaining activity at 1 µM,SBK1; [1],10%
same,remaining activity at 1 µM,RIOK1; [1],49%
same,remaining activity at 1 µM,RET(V804M); [1],2.2%
CCN1CCN(Cc2ccc(NC(=O)c3ccc(C)c(CCc4cnc5[nH]ccc5c4OC)c3)cc2C(F)(F)F)CC1 [HYJ-2-002-1],remaining activity at 1 µM,TAOK3; [2],0.45%
same,remaining activity at 1 µM,NDR1; [2],100%
same,remaining activity at 1 µM,PRKD1; [2],90%
same,remaining activity at 1 µM,PIK3CA(E545K); [2],100%
same,remaining activity at 1 µM,ZAK; [2],3.9%
same,remaining activity at 1 µM,PRKG2; [2],100%
same,remaining activity at 1 µM,PIK3CA(H1047L); [2],100%
same,remaining activity at 1 µM,PRKG1; [2],100%
same,remaining activity at 1 µM,ULK2; [2],88%
same,remaining activity at 1 µM,PAK1; [2],100%
same,remaining activity at 1 µM,RIOK2; [2],35%
same,remaining activity at 1 µM,NEK2; [2],95%
same,remaining activity at 1 µM,NEK6; [2],100%
same,remaining activity at 1 µM,RIOK3; [2],100%
same,remaining activity at 1 µM,PAK2; [2],99%
same,remaining activity at 1 µM,PIK3CA; [2],100%
same,remaining activity at 1 µM,"RSK4; read-out: HYJ-2-002-1 (1μM) % control, Kin.Dom.1-N-terminal",100%
same,remaining activity at 1 µM,"RSK4; read-out: HYJ-2-002-1 (1μM) % control, Kin.Dom.2-C-terminal",28%
same,remaining activity at 1 µM,RIPK1; [2],8.2%
same,remaining activity at 1 µM,TGFBR2; [2],41%
same,remaining activity at 1 µM,TNNI3K; [2],6.6%
same,remaining activity at 1 µM,PRKCI; [2],73%
same,remaining activity at 1 µM,p38-beta; [2],0.35%
same,remaining activity at 1 µM,SRPK2; [2],100%
same,remaining activity at 1 µM,YANK3; [2],100%
same,remaining activity at 1 µM,NEK11; [2],37%
same,remaining activity at 1 µM,S6K1; [2],55%
same,remaining activity at 1 µM,SBK1; [2],93%
same,remaining activity at 1 µM,RIOK1; [2],100%
same,remaining activity at 1 µM,RET(V804M); [2],1%
